Reference: patent US20230190754A1, “Therapeutic combinations for the treatment of Progressive Fibrosing interstitial lung diseases” (Boehringer Ingelheim International GmbH, priority 2021, published 2023)
Marks after values point to notes of the source that are not given here.

System: IPF patients
Experiment: Phase II clinical trial in IPF patients: Treatment Emergent Adverse Events (safety/tolerability), up to 13 weeks
[1] = AF-group (antifibrotic background), 18 mg b.i.d.
[2] = AF-group (antifibrotic background), 18 mg b.i.d., listed as Compound of Formula III
[3] = AF-group (antifibrotic background), 18 mg b.i.d., listed as active agent
[4] = AF-group, nintedanib background medication sub-group, 18 mg b.i.d.
[5] = AF-group, nintedanib background, 18 mg b.i.d.
[6] = AF-group, nintedanib background, 18 mg b.i.d., listed as Compound of Formula III
[7] = AF-group, nintedanib background, 18 mg b.i.d., listed as active agent
[8] = AF-group, nintedanib background, 18 mg b.i.d., listed as compound of formula III
[9] = AF-group, nintedanib background, 18 mg b.i.d., males
[10] = AF-group, pirfenidone background medication sub-group, 18 mg b.i.d.
[11] = AF-group, pirfenidone background, 18 mg b.i.d.

## [O-][S@+]1CCc2nc(N3CCC(c4ncc(Cl)cn4)CC3)nc(NC3(CO)CCC3)c21 [Comp. of form. III]
AF Ninted., N = 26
  Arthralgia, %: (7.7) %
  Bronchitis, %: (3.8) %
  Condition aggravated, %: (3.8) %
  Cough, %: (7.7) %
  Decreased appetite, %: (7.7) %
  Diarrhoea, %: (46.2) %
  Dyspepsia, %: (3.8) %
  Fatigue, %: (3.8) %
  Flatulence, %: (3.8) %
  Gastrointestinal disorders, %: (46.2) %
  General Disorders and Administration Side conditions, %: (19.2) %
  Headache, %: (7.7) %
  Infections and infestations, %: (23.1) %
  Investigations, %: (26.9) %
  Metabolism and nutrition disorders, %: (11.5) %
  Musculoskeletal and connective tissue disorders, %: (7.7) %
  Nasopharyngitis, %: (15.4) %
  Nervous system disorders, %: (15.4) %
  Oedema peripheral, %: (3.8) %
  Pyrexia, %: (2.1) %
  Respiratory, thoracic and mediastinal disorders, %: (11.5) %
  Vomiting, %: (3.8) %
AF Pirf., N = 15
  Abdominal Pain, %: (4.3) %
  Asthenia, %: (4.3) %
  Condition aggravated, %: (4.3) %
  Constipation, %: (4.3) %
  Cough, %: (8.7) %
  Diarrhoea, %: (13.0) %
  Dizziness, %: (4.3) %
  Dyspepsia, %: (4.3) %
  Fatigue, %: (4.3) %
  Flatulence, %: (4.3) %
  Gastrointestinal disorders, %: (26.1) %
  General Disorders and Administration Side conditions, %: (8.7) %
  Headache, %: (4.3) %
  Infections and infestations, %: (4.3) %
  Investigations, %: (13.0) %
  Musculoskeletal and connective tissue disorders, %: (4.3) %
  Nausea, %: (4.3) %
  Nervous system disorders, %: (21.7) %
  Respiratory, thoracic and mediastinal disorders, %: (13.0) %
  Rhinorrhoea, %: (4.3) %
  Vomiting, %: (4.3) %
[1]
  AE resulting in death, patients %: (2.0) %
  AE resulting in death, patients n: 1
  AE: Abdominal pain, patients %: (2.0) %
  AE: Abdominal pain, patients n: 1
  AE: Arthralgia, patients %: (4.1) %
  AE: Arthralgia, patients n: 2
  AE: Asthenia, patients %: (2.0) %
  AE: Asthenia, patients n: 1
  AE: Bronchitis, patients %: (2.0) %
  AE: Bronchitis, patients n: 1
  AE: Condition aggravated, patients %: (4.1) %
  AE: Condition aggravated, patients n: 2
  AE: Constipation, patients %: (2.0) %
  AE: Constipation, patients n: 1
  AE: Cough, patients %: (8.2) %
  AE: Cough, patients n: 4
  AE: Decreased appetite, patients %: (4.1) %
  AE: Decreased appetite, patients n: 2
  AE: Diarrhoea, patients %: 30.6%
  AE: Diarrhoea, patients n: 15
  AE: Dizziness, patients %: (2.0) %
  AE: Dizziness, patients n: 1
  AE: Dyspepsia, patients %: (4.1) %
  AE: Dyspepsia, patients n: 2
  AE: Fatigue, patients %: (2.0) %
  AE: Fatigue, patients n: 1
  AE: Flatulence, patients %: (4.1) %
  AE: Flatulence, patients n: 2
  AE: Gastrointestinal disorders, patients %: 36.7%
  AE: Gastrointestinal disorders, patients n: 18
  AE: General disorders and administration site conditions, patients %: (14.3) %
  AE: General disorders and administration site conditions, patients n: 7
  AE: Headache, patients %: (6.1) %
  AE: Headache, patients n: 3
  AE: Infections and infestations, patients %: (14.3) %
  AE: Infections and infestations, patients n: 7
  AE: Investigations, patients %: (20.4) %
  AE: Investigations, patients n: 10
  AE: Metabolism and nutrition disorders, patients %: (6.1) %
  AE: Metabolism and nutrition disorders, patients n: 3
  AE: Musculoskeletal and connective tissue disorders, patients %: (6.1) %
  AE: Musculoskeletal and connective tissue disorders, patients n: 3
  AE: Nasopharyngitis, patients %: (8.2) %
  AE: Nasopharyngitis, patients n: 4
  AE: Nausea, patients %: (2.0) %
  AE: Nausea, patients n: 1
  AE: Nervous system disorders, patients %: (18.4) %
  AE: Nervous system disorders, patients n: 9
  AE: Oedema peripheral, patients %: (2.0) %
  AE: Oedema peripheral, patients n: 1
  AE: Pyrexia, patients %: (2.0) %
  AE: Pyrexia, patients n: 1
  AE: Respiratory, thoracic and mediastinal disorders, patients %: (12.2) %
  AE: Respiratory, thoracic and mediastinal disorders, patients n: 6
  AE: Rhinorrhoea, patients %: (2.0) %
  AE: Rhinorrhoea, patients n: 1
  AE: Vomiting, patients %: (4.1) %
  AE: Vomiting, patients n: 2
  AE: Weight decreased, patients %: (2.0) %
  AE: Weight decreased, patients n: 1
  AEs leading to discontinuation of trial drug, patients %: (20.4) %
  AEs leading to discontinuation of trial drug, patients n: 10
  Any AE, patients n: 36
  SAE: Condition aggravated, patients %: (4.1) %
  SAE: Condition aggravated, patients n: 2
  SAE: General disorders and administration side conditions, bracketed fatal event [ ]*, patients %: (2.1)]* %
  SAE: General disorders and administration side conditions, bracketed fatal event [ ]*, patients n: [1
  SAE: General disorders and administration side conditions, patients %: (4.1) %
  SAE: General disorders and administration side conditions, patients n: 2
  SAE: Nervous system disorders, patients %: (2.0) %
  SAE: Nervous system disorders, patients n: 1
  SAE: Peripheral nerve paresis, patients %: (2.0) %
  SAE: Peripheral nerve paresis, patients n: 1
  SAE: Vascular disorders, patients %: (2.0) %
  SAE: Vascular disorders, patients n: 1
  SAE: Vasculitis (fatal event), patients %: (2.0)* %
  SAE: Vasculitis (fatal event), patients n: 1
  Serious AEs (patients with ≥1 SAE), patients %: (6.1) %
  Serious AEs (patients with ≥1 SAE), patients n: 3
  Severe AEs, patients %: (4.1) %
  Severe AEs, patients n: 2
AF-group (antifibrotic background), 18 mg b.i.d., listed as Comp. of Form. III
  AE: Diarrhoea, patients %: 30.6%
[2]
  AE: Diarrhoea, patients %: (30.6) %
  AE: Gastrointestinal disorders, patients %: (36.7) %
  Any AE, patients %: (73.5) %
[3]
  AE: Diarrhoea, patients %: 30.6%
  Any AE, patients %: 73.5%
[4]
  AE: Diarrhoea, patients %: 46.2%
  AE: gastrointestinal disorder, patients %: 46.2%
[5]
  Dyspepsia leading to discontinuation of trial treatment, patients %: (3.8) %
  Dyspepsia leading to discontinuation of trial treatment, patients n: 1
  Gastrointestinal disorders leading to discontinuation of trial treatment, patients n: 4
  Patients with AEs leading to discontinuation of the trial drug, %: 26.9%
  Patients with any AE, %: 80.8%
  Patients with investigator defined drug related AEs, %: 46.2%
  Patients with other significant AEs, %: 26.9%
  Patients with pre-specified AEs of special interest, %: 0%
  Patients with serious AEs, %: 3.8%
  Patients with severe AEs, %: 3.8%
  Serious AEs: Congenital anomaly/birth defect, %: 0%
  Serious AEs: Immediately life threatening, %: 0%
  Serious AEs: Other comparable medical criteria, %: 0%
  Serious AEs: Persistent or significant disability, %: 0%
  Serious AEs: Requires or prolongs hospitalization, %: 3.8%
  Serious AEs: Results in Death, %: 0%
[6]
  Diarrhoea leading to discontinuation of trial treatment, patients %: (11.5) %
  Diarrhoea leading to discontinuation of trial treatment, patients n: 3
  Gastrointestinal disorders leading to discontinuation of trial treatment, patients %: (15.4) %
[7]
  Diarrhoea leading to discontinuation of trial treatment, patients n: 3
  Gastrointestinal disorders leading to discontinuation of trial treatment, patients %: 15.4%
[8]
  Diarrhoea leading to discontinuation of trial treatment, patients %: 11.5%
  Gastrointestinal disorders leading to discontinuation of trial treatment, patients %: 15.4%
[9]
  Moderate cases of diarrhoea, %: 2.1%
  Severe case of diarrhoea, %: 1.0%
[10]
  AE: Diarrhoea, patients %: 13.0%
  AE: gastrointestinal disorder, patients %: 26.1%
[11]
  Patients with AEs leading to discontinuation of the trial drug, %: 13.0%
  Patients with any AE, %: 65.2%
  Patients with investigator defined drug related AEs, %: 26.1%
  Patients with other significant AEs, %: 4.3%
  Patients with pre-specified AEs of special interest, %: 4.3%
  Patients with serious AEs, %: 8.7%
  Patients with severe AEs, %: 4.3%
  Serious AEs: Congenital anomaly/birth defect, %: 0%
  Serious AEs: Immediately life threatening, %: 0%
  Serious AEs: Other comparable medical criteria, %: 0%
  Serious AEs: Persistent or significant disability, %: 0%
  Serious AEs: Requires or prolongs hospitalization, %: 8.7%
  Serious AEs: Results in Death, %: 4.3%
AF-group, pirfenidone background, 18 mg b.i.d., listed as active agent
  Gastrointestinal disorders leading to discontinuation of trial treatment, patients (in words): not a single patient
AF-group, pirfenidone background, 18 mg b.i.d., listed as compound of formula III
  Gastrointestinal disorders leading to discontinuation of trial treatment, patients (in words): no discontinuations of the trial treatment at all
Non-AF+AF total, 18 mg b.i.d.
  AE resulting in death, patients %: (2.1) %
  AE resulting in death, patients n: 2
  AE: Abdominal pain, patients %: (2.1) %
  AE: Abdominal pain, patients n: 2
  AE: Arthralgia, patients %: (2.1) %
  AE: Arthralgia, patients n: 2
  AE: Asthenia, patients %: (4.1) %
  AE: Asthenia, patients n: 4
  AE: Bronchitis, patients %: (2.1) %
  AE: Bronchitis, patients n: 2
  AE: Condition aggravated, patients %: (2.1) %
  AE: Condition aggravated, patients n: 2
  AE: Constipation, patients %: (2.1) %
  AE: Constipation, patients n: 2
  AE: Cough, patients %: (7.2) %
  AE: Cough, patients n: 7
  AE: Decreased appetite, patients %: (3.1) %
  AE: Decreased appetite, patients n: 3
  AE: Diarrhoea, patients %: (23.7) %
  AE: Diarrhoea, patients n: 23
  AE: Dizziness, patients %: (2.1) %
  AE: Dizziness, patients n: 2
  AE: Dyspepsia, patients %: (5.2) %
  AE: Dyspepsia, patients n: 5
  AE: Dyspnoea, patients %: (3.1) %
  AE: Dyspnoea, patients n: 3
  AE: Fatigue, patients %: (3.1) %
  AE: Fatigue, patients n: 3
  AE: Flatulence, patients %: (5.2) %
  AE: Flatulence, patients n: 5
  AE: Gastrointestinal disorders, patients %: (32.0) %
  AE: Gastrointestinal disorders, patients n: 31
  AE: General disorders and administration site conditions, patients %: (16.5) %
  AE: General disorders and administration site conditions, patients n: 16
  AE: Headache, patients %: (6.2) %
  AE: Headache, patients n: 6
  AE: Infections and infestations, patients %: (14.4) %
  AE: Infections and infestations, patients n: 14
  AE: Investigations, patients %: (15.5) %
  AE: Investigations, patients n: 15
  AE: Metabolism and nutrition disorders, patients %: (4.1) %
